{"source": "paper PMC3190963", "about": "(Journal of structural biology, 2011)", "biological_target": "human UPP1 (hUPP1) (Homo sapiens, UniProt Q16831)", "sequence (Q16831 whole entry)": "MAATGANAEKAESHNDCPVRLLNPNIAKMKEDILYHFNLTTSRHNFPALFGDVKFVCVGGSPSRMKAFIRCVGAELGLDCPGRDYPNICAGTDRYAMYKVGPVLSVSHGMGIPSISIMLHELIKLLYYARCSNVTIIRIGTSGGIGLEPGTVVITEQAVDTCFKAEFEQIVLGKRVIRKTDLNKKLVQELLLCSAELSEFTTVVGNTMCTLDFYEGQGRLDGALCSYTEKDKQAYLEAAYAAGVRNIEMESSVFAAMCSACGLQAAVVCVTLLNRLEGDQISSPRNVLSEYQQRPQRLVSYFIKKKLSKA", "test": "absorbance change at […] nm, uridine to uracil", "type": "biochemical", "conditions": "uridine and inorganic phosphate; reference for hUPP2 activity"}
{"compound": "O=c1ccn([C@@H]2O[C@H](CO)[C@@H](O)[C@H]2O)c(=O)[nH]1", "note": "[uridine]", "values": [{"measurement": "absorbance change at 280 nm, uridine to uracil", "value": "in vitro activity of recombinant hUPP2 and hUPP1 was compared"}]}
